From ChEMBL document CHEMBL5108038, “Development of Inhibitors Targeting the V-Domain Ig Suppressor of T Cell Activation Signal Pathway” (J Med Chem, 2022) come the findings set out here.

Test [1] can be described thus: Inhibition of VISTA/VSIG3 protein protein interaction (unknown origin) by FRET method. Details: species or system Homo sapiens.
For test [2], the target named is T1, V-type immunoglobulin domain-containing suppressor of T-cell activation (Homo sapiens, UniProt Q9H7M9).
T1 sequence (Q9H7M9 whole entry): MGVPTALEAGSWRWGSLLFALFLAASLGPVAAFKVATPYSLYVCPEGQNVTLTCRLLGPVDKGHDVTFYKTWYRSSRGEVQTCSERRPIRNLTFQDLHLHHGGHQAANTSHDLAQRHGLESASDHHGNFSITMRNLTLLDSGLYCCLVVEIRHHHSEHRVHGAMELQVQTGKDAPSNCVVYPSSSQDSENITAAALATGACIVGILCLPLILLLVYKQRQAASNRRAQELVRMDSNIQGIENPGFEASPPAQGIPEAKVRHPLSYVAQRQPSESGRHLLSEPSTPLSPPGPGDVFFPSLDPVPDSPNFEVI
The test is described as follows: Binding affinity to VISTA (unknown origin) assessed as dissociation constant by MST method.

In test [3] the target is Programmed cell death protein 1/Programmed cell death 1 ligand 1 (Homo sapiens) (UniProt Q15116+Q9NZQ7). The test is described as follows: Inhibition of recombinant PD-1/PD-L1 signalling route (unknown origin) at 10 uM by HTRF assay relative to control. It counts as protein-complex assay. For orientation: TR-FRET usually uses a lanthanide donor and a delayed reading to cut background.

The target of test [4] is T2, V-type immunoglobulin domain-containing suppressor of T-cell activation (Homo sapiens) (UniProt Q9H7M9).
T2 sequence (whole entry): T1 sequence (Q9H7M9 whole entry)
The test is described as follows: Inhibition of recombinant VISTA signalling pathway (unknown origin) at 10 uM by HTRF assay relative to control.

Test [5] can be described thus: Inhibition of PD-L1 in human PBMC. Format: cell-based.
For test [6], the target named is T3, V-set and immunoglobulin domain-containing protein 8 (Homo sapiens, UniProt P0DPA2).
T3 sequence (P0DPA2 whole entry): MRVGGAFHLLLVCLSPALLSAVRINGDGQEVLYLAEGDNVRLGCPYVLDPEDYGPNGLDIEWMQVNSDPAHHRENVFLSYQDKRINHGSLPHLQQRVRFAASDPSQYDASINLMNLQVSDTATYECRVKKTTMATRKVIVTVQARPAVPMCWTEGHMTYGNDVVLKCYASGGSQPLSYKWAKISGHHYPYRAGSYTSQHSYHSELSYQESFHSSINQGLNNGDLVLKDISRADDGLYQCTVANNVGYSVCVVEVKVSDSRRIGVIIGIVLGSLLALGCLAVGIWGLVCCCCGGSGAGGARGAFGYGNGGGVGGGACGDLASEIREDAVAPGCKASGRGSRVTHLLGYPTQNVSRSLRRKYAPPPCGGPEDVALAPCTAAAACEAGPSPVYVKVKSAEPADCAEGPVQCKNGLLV
The test is described as follows: Binding affinity to human VSIG8 assessed as dissociation constant by MST method.

The nature of test [7]: Antitumor immunity in PBMC (unknown origin) assessed as inhibition of VSIG8 binding to VISTA. Format: functional, cell-based.

The term IC50 denotes the midpoint of a concentration-inhibition curve. In the case of `CN(C)c1n/c(=N\Cc2ccco2)ss1`, the IC50 in test [1] was 4800 nM.
As usually defined, the Kd is a measure of binding affinity in units of concentration. For the molecule `Cc1ccc2nc(Nc3nc(O)cc(CSc4nnc(C)s4)n3)nc(C)c2c1`, the Kd in test [2] is 647 nM.
Usually inhibition stands for the share of the control response that was lost under treatment. Consider `C[C@@H](O)[C@H](NC(=O)C1(C(=O)N[C@@H](CC(N)=O)c2nc([C@H](N)CO)no2)CCCC1)C(=O)O`, for which the inhibition stood at 92% in test [3] and 81% in test [4].
What is called EC50 is the midpoint of the concentration-response curve. In test [5], `C[C@@H](O)[C@H](NC(=O)N[C@@H](CC(N)=O)c1nc([C@H](N)CO)no1)C(=O)O` yielded a concentration for a half-maximal effect (EC50) of 66.1 nM.
`COc1cc(NC(=O)Nc2c(-c3ccncc3)[nH]c3ccc(Cl)cc23)cc(OC)c1`: the Kd in test [6] is 6700 nM. Further, in test [7], the EC50 was determined as 1460 nM.
